Measurements from ChEMBL document CHEMBL1201862, “PubChem BioAssay data set” (2004).
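Interpolation was linear, between the two tested concentrations surrounding the appropriate level; five concentrations were tested over 48 hours in 96-well plates. Abbreviation: GI50, concentration required for 50% inhibition of growth.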 Calls of active or inactive are those of the source. Cut-off read from the data, not from the text of the source: active = GI50 up to about 1.1 µM and inactive = higher.

Experiments:
Assay in all cases: growth of human tumour cells (NCI), 48 h
NCI-H460 = test system: NCI-H460
CAKI-1 = test system: CAKI-1
SF-539 = test system: SF-539
NCI/ADR-RES = test system: NCI/ADR-RES
MDA-MB-231 = test system: MDA-MB-231
MOLT-4 = test system: MOLT-4
786-0 = test system: 786-0
RPMI-8226 = test system: RPMI-8226
SN12C = test system: SN12C
MDA-N = test system: MDA-N
CCRF-CEM = test system: CCRF-CEM
Hs-578T = test system: Hs-578T
HL-60 = test system: HL-60
SK-MEL-28 = test system: SK-MEL-28
SNB-19 = test system: SNB-19
TK-10 = test system: TK-10
KM12 = test system: KM12
HOP-92 = test system: HOP-92
SF-268 = test system: SF-268
NCI-H23 = test system: NCI-H23
ACHN = test system: ACHN
DU-145 = test system: DU-145
UO-31 = test system: UO-31
LOX IMVI = test system: LOX IMVI
SK-OV-3 = test system: SK-OV-3
COLO 205 = test system: COLO 205
OVCAR-4 = test system: OVCAR-4
OVCAR-8 = test system: OVCAR-8
UACC-62 = test system: UACC-62
SR = test system: SR
MDA-MB-435 = test system: MDA-MB-435
K562 = test system: K562
OVCAR-5 = test system: OVCAR-5
T47D = test system: T47D
Malme-3M = test system: Malme-3M
HOP-62 = test system: HOP-62
IGROV-1 = test system: IGROV-1
RXF 393 = test system: RXF 393
HT-29 = test system: HT-29
EKVX = test system: EKVX
SK-MEL-5 = test system: SK-MEL-5
PC-3 = test system: PC-3
SF-295 = test system: SF-295
M14 = test system: M14
HCT-116 = test system: HCT-116
UACC-257 = test system: UACC-257
OVCAR-3 = test system: OVCAR-3
A549 = test system: A549
NCI-H226 = test system: NCI-H226
MCF7 = test system: MCF7
SW-620 = test system: SW-620
U-251 = test system: U-251
HCT-15 = test system: HCT-15
HCC 2998 = test system: HCC 2998
NCI-H522 = test system: NCI-H522
A498 = test system: A498
SK-MEL-2 = test system: SK-MEL-2

Measured: GI50

O=C(OC1C2OC(=O)c3cc(O)c(O)c(O)c3Oc3cc4c(c(O)c3O)-c3c(cc(O)c(O)c3O)C(=O)OCC3OC(O)C(OC(=O)c5cc(O)c(O)c(O)c5Oc5cc6c(c(O)c5O)-c5c(cc(O)c(O)c5O)C(=O)OC1C(COC6=O)OC2O)C(OC(=O)c1cc(O)c(O)c(O)c1)C3OC4=O)c1cc(O)c(O)c(O)c1 (stereo not given)
inactive: NCI-H460 3.52 µM | CAKI-1 38.3 µM | SF-539 24.4 µM | NCI/ADR-RES 58.2 µM | MDA-MB-231 19.6 µM | MOLT-4 3.46 µM | 786-0 21 µM | RPMI-8226 4.59 µM | SN12C 26.7 µM | MDA-N 21.2 µM | CCRF-CEM 3.61 µM | Hs-578T 32.3 µM | HL-60 16.2 µM | SK-MEL-28 76.7 µM | SNB-19 17.6 µM | TK-10 38.7 µM | KM12 3.36 µM | HOP-92 19 µM | SF-268 26.4 µM | NCI-H23 24.6 µM | ACHN 38.9 µM | DU-145 41 µM | UO-31 4.8 µM | LOX IMVI 17.9 µM | SK-OV-3 12.5 µM | COLO 205 5.87 µM | OVCAR-4 17.8 µM | OVCAR-8 27 µM | UACC-62 28.4 µM | SR 4.61 µM | MDA-MB-435 21.4 µM | K562 7.8 µM | OVCAR-5 40.1 µM | T47D > 100 µM | Malme-3M > 100 µM | HOP-62 23.4 µM | IGROV-1 40.2 µM | RXF 393 21.9 µM | HT-29 17.9 µM | EKVX 12.5 µM | SK-MEL-5 53.8 µM | PC-3 20 µM | SF-295 14.7 µM | M14 35.2 µM | HCT-116 16.4 µM | UACC-257 81.5 µM | OVCAR-3 25.8 µM | A549 10.8 µM | NCI-H226 22.4 µM | MCF7 50.7 µM | SW-620 13.2 µM

COc1ccc(/C=N/Nc2nc3ccccc3c(=O)n2-c2ccccc2)c(OCc2ccccc2)c1
active: MCF7 0.226 µM | SK-MEL-2 65.6 nM
inactive: NCI-H460 > 100 µM | CAKI-1 34.8 µM | SF-539 14.5 µM | NCI/ADR-RES > 100 µM | MDA-MB-231 88.7 µM | MOLT-4 > 100 µM | 786-0 > 100 µM | SN12C > 100 µM | CCRF-CEM > 100 µM | HL-60 > 100 µM | SK-MEL-28 > 100 µM | SNB-19 > 100 µM | U-251 > 100 µM | TK-10 > 100 µM | KM12 > 100 µM | HOP-92 19.3 µM | SF-268 > 100 µM | NCI-H23 > 100 µM | ACHN > 100 µM | HCC 2998 > 100 µM | DU-145 > 100 µM | UO-31 > 100 µM | LOX IMVI > 100 µM | SK-OV-3 > 100 µM | COLO 205 > 100 µM | OVCAR-4 > 100 µM | NCI-H522 > 100 µM | OVCAR-8 > 100 µM | UACC-62 70.6 µM | SR > 100 µM | MDA-MB-435 > 100 µM | K562 > 100 µM | OVCAR-5 > 100 µM | T47D > 100 µM | Malme-3M > 100 µM | HOP-62 > 100 µM | IGROV-1 > 100 µM | RXF 393 > 100 µM | A498 > 100 µM | HT-29 > 100 µM | EKVX 33.9 µM | SK-MEL-5 > 100 µM | PC-3 35.6 µM | SF-295 > 100 µM | M14 83.9 µM | HCT-116 > 100 µM | UACC-257 > 100 µM | OVCAR-3 > 100 µM | A549 > 100 µM | NCI-H226 > 100 µM | SW-620 > 100 µM
> 100 µM: HCT-15
